In US5254549A, “New BHT ether compounds and their use as hypolipidemic and antiatherosclerotic drugs” (Merz & Co. GmbH & Co., priority 1991, dated 1993):
Where two headings read alike, the source gives them in different places.

Legend:
triglycerides = assay: Lipid-lowering properties in fasting normolipidemic rats (serum triglycerides, GPO-PAP method); format: in vivo; details: rat, single oral dose 0.2 mmol/kg, read-out: Mean change (Δ mean reduction) of triglyceride concentrations versus vehicle-treated control
Method: The lipid-lowering properties of the compounds according to the invention were investigated in a rat model. In this model a single dose (0.2 mmol/kg) of the test substance was administered to fasting normolipidemic rats by the oral route. 240 and 360 minutes after application, blood samples were taken, the concentrations of triglycerides being assessed by a standard method (namely GPO-PAP method, E. Merck-system, Darrdstadt, Germany) (n=5 rats per measurement time).
In Table 2 the mean changes are given in percent as compared to a solvent (cremophor, 30% in aqua dest) control.
Table 2: Mean changes (Δ mean reduction) in percent of triglyceride concentrations 240 and 360 minutes after a single application versus vehicle-treated control.

[1] = Trilinolenine assay of antioxidant properties (TBA-reactive material); format: biochemical; details: 5×10^-5 M, 3 h at 37° C., versus vehicle-treated control; 50 µM
Method: (§1) The antioxidant properties of the compounds according to the invention were studied in in-vitro tests. In these tests the substance was incubated with the substrate to be oxidized (synthetic triglyceride with unsaturated fatty acids, i.e., trilinolenine or human LDL). After the incubation period, the degree of oxidation was determined using the so called thiobarbituric acid (TBA) assay. TBA reacts with malondialdehyde (MDA), which is one of the essential oxidation products. The reaction product was assayed photometrically.
400 μl of trilinolenine was incubated for 3 h at 37° C. with 2 ml HAM F 10 medium with vehicle (namely, ethanol, 0.5% final concentration) or test substance (concentration: 5×10^-5 M) (oxidation is effected without special catalysts).
The total TBA-reactive material was determined in 1 ml of the incubate by adding 1.5 ml of 0.67% TBA solution to 0.05 N NAOH and 1.5 ml to a 20% trichloroacetic acid solution. The mixture was reacted for 60 min. on a boiling water bath. After cooling, absorption was determined at 532 nm.
(§2) Three preparations were tested per test compound.
(§3) Tables 3a (trilinolenine assay) and 3b (LDL assay) represent the mean changes in percent as compared to solvent control.
(§4) Table 3: mean change (Δ mean reduction) in percent of the concentration of TBA-reactive material after 3-h (a: trilinolenine assay) and 24-h (b: LDL assay) incubation versus vehicle-treated control preparation.

human LDL = assay: LDL assay of antioxidant properties (TBA-reactive material); format: biochemical; details: 5×10^-5 M, 24 h, 10 μM Cu^2+, versus vehicle-treated control; 50 µM
Method: as §1
LDL (d=1.019-1.063) was obtained from human plasma by ultracentifugation under addition of EDTA.
100 μg of LDL was incubated with 0. 5 ml of HAM F 10 medium for 24 h at […] with vehicle (namely ethanol, 0. 5% final concentration) or test substance (concentration: 5×10^-5 M) in the presence of 10 μM of Cu^2+.
The total TBA-reactive material was determined in accordance with the trilinolenine assay.
as §2, §3, §4

[2] = tested on: Human endothelial cells of the umbilical vein; assay: Endothelial protection against cytotoxic effects of oxidized LDL; format: cell-based; details: 2×10^-5 M, 24 h at 37° C., LDL 200 μg/ml; for Mean change (Δ mean reduction) of the concentration of TBA-reactive material after incubation of endothelial cells with LDL: versus control preparation 1 (vehicle + LDL), 20 µM; for viability at 20 µM: Homo sapiens, Endothelial cell, control preparation 2 without LDL = 100%, read-out: Mean number of endothelial cells after incubation with LDL as compared to control preparation 2
Method: Human endothelial cells of the umbilical vein were isolated after collagenase vascular treatment and cultured.
For the assay the cells were dispersed in a density of 50,000 per dish and cultivated for 4 days with Ham's F 12/DMEM medium (ratio: 4:1) under addition of 15% fetal calf serum, 5% horse serum and 10 ng/ml ECGF heparin.
After 4 days the cells were washed with serum-free medium and used in the cytotox assay.
For this assay the cells were incubated f or 24 h at 37° C. in 1 ml of Ham's F 10 medium (+ECGF heparin) with LDL (200 μg/ml). During this time period either the vehicle, namely, ethanol, 0.5% final concentration (control preparation 1) or the test substance (2×10^-5 M) was present. In parallel, one preparation was incubated without LDL and without any other substance and with vehicle (0.5% ethanol) to assess the maximum proliferation rate (control preparation 2).
After 24 h the resultant TBA-reactive material was determined in the medium or the number of cells counted.
as §2
Table 4a represents the mean changes in percent versus appropriate control preparation 1.
Table 4a: Mean change (Δ mean reduction) in percent of the concentration of TBA-reactive material after incubation of endothelial cells for 24 h with LDL versus appropriate control preparation 1.
Table 4b: Mean number of cells in percent after 24-h incubation with LDL as compared to appropriate control preparation 2.

[3] = tested on: Smooth muscle cells from the aorta of balloon-catheterized rats; assay: Antiproliferative effect on smooth muscle cells in vitro; format: cell-based; details: Rattus norvegicus, 72 h; 5×10^-5 M, 3 days, versus vehicle-treated control; read-out: Mean change (Δ mean reduction) of the number of smooth vascular muscle cells
Method: Smooth muscle cells, obtained after isolation from the aorta of balloon-catheterized rats, were cultivated in DMEM under addition of 10% of fetal calf serum and subject to passages.
For the assay 10,000 cells of one passage were inoculated per dish and incubated for 3 days with vehicle (namely DMSO, 0.5% final concentration) or test compound (5×10^-5 M) 4 h after innoculation. After 3 days a cell count was made. Six preparations-Were tested per test compound.
Table 5: Mean change (Δ mean reduction) in percent of the number of smooth vascular muscle cells after incubation with test substance for 3 days as compared to vehicle-treated control preparation.

[4] = Kinetics of nicotinic acid released from the compounds in fasting normolipidemic rats (GC/MS in serum); format: in vivo, rat; details: general statement
Method: The kinetics of nicotinic acid released from the compounds under investigation was studied in the rat. A single dose (0.2 mmol/kg) of the test substance was administered to fasting normolipidemic rats by gavage. 240 and 360 minutes thereafter, blood samples were taken and the concentration of nicotinic acid in serum was determined using a GC/MS method (n=5 rats per time). Table 1: Concentration of nicotinic acid (mg/1) in pooled serum samples after a single application of drug.

For `CC(C)(C)c1cc(CCCOCc2cccnc2)cc(C(C)(C)C)c1O` [3/124, 2,6-Di-tert-butyl-4-(5-(3-pyridyl)-4-oxapentyl]phenol], the inhibition in vivo at 200 µmol/kg (triglycerides; 4 h, Time 240') was 73%, the inhibition in vivo at 200 µmol/kg (triglycerides; 6 h, Time 360') was 76% and the “Mean change (Δ mean reduction) of the concentration of TBA-reactive material, trilinolenine assay” value [1] was 76%. The “Mean change (Δ mean reduction) of the concentration of TBA-reactive material, LDL assay” value (from here on “Mean change (Δ mean reduction) … LDL assay”) (human LDL) was 90%, the “Mean change (Δ mean reduction) of the concentration of TBA-reactive material after incubation of endothelial cells with LDL” value (“Mean change (Δ mean reduction) … with LDL” for short) [2] was 57% and the viability at 20 µM [2] was 118%. For the same compound, the inhibition at 50 µM [3] was 71%.
With `CC(C)(C)c1cc(COCc2cccnc2)cc(C(C)(C)C)c1O` [3/156] the “levels of nicotinic acid (in words)” value [4] was “excessively high levels of nicotinic acid”.
For `CC(C)(C)c1cc(COCCCCCCc2cccnc2)cc(C(C)(C)C)c1O` [3/161, 2,6-Di-tert-butyl-4-[8-(3-pyridyl)-2-oxaoctyl]phenol], the inhibition in vivo at 200 µmol/kg (triglycerides; 4 h, Time 240') was 60%, the inhibition in vivo at 200 µmol/kg (triglycerides; 6 h, Time 360') was 67% and the “Mean change (Δ mean reduction) of the concentration of TBA-reactive material, trilinolenine assay” value [1] was 58%. For the same compound, the “Mean change (Δ mean reduction) … LDL assay” value (human LDL) was 79%, the “Mean change (Δ mean reduction) … with LDL” value [2] was 64% and the viability at 20 µM [2] was 107%. For the same compound, the inhibition at 50 µM [3] was 98%.
For `CC(C)(C)c1cc(COCCCCC#Cc2cccnc2)cc(C(C)(C)C)c1O` [3/179, 2,6-Di-tert-butyl-4-[8-(3-pyridyl)-2-oxaoct-7-ynyl]phenol], the inhibition in vivo at 200 µmol/kg (triglycerides; 4 h, Time 240') was 57%, the inhibition in vivo at 200 µmol/kg (triglycerides; 6 h, Time 360') was 70% and the “Mean change (Δ mean reduction) of the concentration of TBA-reactive material, trilinolenine assay” value [1] was 79%. For the same compound, the “Mean change (Δ mean reduction) … LDL assay” value (human LDL) was 73%, the “Mean change (Δ mean reduction) … with LDL” value [2] was 43% and the viability at 20 µM [2] was 76%. It also gave an inhibition at 50 µM [3] of 55%.
With `CC(C)(C)c1cc(COCCCC/C=C\c2cccnc2)cc(C(C)(C)C)c1O` [3/181, (Z)-2,6-Di-tert-butyl-4-(8-(3-pyridyl)-2-oxaoct-7-enyl]-phenol] the inhibition in vivo at 200 µmol/kg (triglycerides; 4 h, Time 240') was 57%, the inhibition in vivo at 200 µmol/kg (triglycerides; 6 h, Time 360') was 57% and the “Mean change (Δ mean reduction) of the concentration of TBA-reactive material, trilinolenine assay” value [1] was 76%. The “Mean change (Δ mean reduction) … LDL assay” value (human LDL) was 76%, the “Mean change (Δ mean reduction) … with LDL” value [2] was 65% and the viability at 20 µM [2] was 122%. It also gave an inhibition at 50 µM [3] of 81%.
For `CC(C)(C)c1cc(COCCCCc2cccnc2)cc(C(C)(C)C)c1O` [3/187, 2,6-Di-tert-butyl-4-[6-(3-pyridyl)-2-oxahexyl]phenol], the inhibition in vivo at 200 µmol/kg (triglycerides; 4 h, Time 240') was 65%, the inhibition in vivo at 200 µmol/kg (triglycerides; 6 h, Time 360') was 55% and the “Mean change (Δ mean reduction) of the concentration of TBA-reactive material, trilinolenine assay” value [1] was 71%. The “Mean change (Δ mean reduction) … LDL assay” value (human LDL) was 82%, the “Mean change (Δ mean reduction) … with LDL” value [2] was 53% and the viability at 20 µM [2] was 80%. It also gave an inhibition at 50 µM [3] of 93%.
With `CC(C)(C)c1cc(COCCCCCCCc2cccnc2)cc(C(C)(C)C)c1O` [3/188, 2,6-Di-tert-butyl-4-[9-(3-pyridyl)-2-oxanonyl]phenol] the inhibition in vivo at 200 µmol/kg (triglycerides; 4 h, Time 240') was 53%, the inhibition in vivo at 200 µmol/kg (triglycerides; 6 h, Time 360') was 40% and the “Mean change (Δ mean reduction) of the concentration of TBA-reactive material, trilinolenine assay” value [1] was 66%. The “Mean change (Δ mean reduction) … LDL assay” value (human LDL) was 71%, the “Mean change (Δ mean reduction) … with LDL” value [2] was 54% and the viability at 20 µM [2] was 79%. It also gave an inhibition at 50 µM [3] of 63%.
For `CC(C)(C)c1cc(CCCOCCCc2cccnc2)cc(C(C)(C)C)c1O` [3/190, 2,6-Di-tert-butyl-4-[7-(3-pyridyl)-4-oxaheptyl]phenol], the inhibition in vivo at 200 µmol/kg (triglycerides; 4 h, Time 240') was 56%, the inhibition in vivo at 200 µmol/kg (triglycerides; 6 h, Time 360') was 28% and the “Mean change (Δ mean reduction) of the concentration of TBA-reactive material, trilinolenine assay” value [1] was 72%. The “Mean change (Δ mean reduction) … LDL assay” value (human LDL) was 89%, the “Mean change (Δ mean reduction) … with LDL” value [2] was 36% and the viability at 20 µM [2] was 65%. For the same compound, the inhibition at 50 µM [3] was 91%.
For `CC(C)(C)c1cc(CCCOCCCCCc2cccnc2)cc(C(C)(C)C)c1O` [3/191, 2,6-Di-tert-butyl-4-[9-(3-pyridyl)-4-oxanonyl)phenol], the inhibition in vivo at 200 µmol/kg (triglycerides; 4 h, Time 240') was 37%, the inhibition in vivo at 200 µmol/kg (triglycerides; 6 h, Time 360') was 32% and the “Mean change (Δ mean reduction) of the concentration of TBA-reactive material, trilinolenine assay” value [1] was 76%. The “Mean change (Δ mean reduction) … LDL assay” value (human LDL) was 86%, the “Mean change (Δ mean reduction) … with LDL” value [2] was 33% and the viability at 20 µM [2] was 63%. It also gave an inhibition at 50 µM [3] of 79%.
For `CC(C)(C)c1cc(COCCCCCc2cccnc2)cc(C(C)(C)C)c1O` [3/192, 2,6-Di-tert-butyl-4-[7-(3-pyridyl)-2-oxaheptyl]phenol], the inhibition in vivo at 200 µmol/kg (triglycerides; 4 h, Time 240') was 44%, the inhibition in vivo at 200 µmol/kg (triglycerides; 6 h, Time 360') was 53% and the “Mean change (Δ mean reduction) of the concentration of TBA-reactive material, trilinolenine assay” value [1] was 74%. The “Mean change (Δ mean reduction) … LDL assay” value (human LDL) was 86%, the “Mean change (Δ mean reduction) … with LDL” value [2] was 47% and the viability at 20 µM [2] was 79%. For the same compound, the inhibition at 50 µM [3] was 95%.
